{"source": "paper PMC7035970", "about": "(Cell chemical biology, 2019)", "key": {"[1]": {"test_system": "M. tuberculosis strain fgd1∷tn", "assay": "MIC versus F420H2 deficient strain fgd1∷tn", "assay_type": "cell-based, Mycobacterium tuberculosis"}, "[2]": {"test_system": "M. tuberculosis H37Rv", "details": "cited from earlier work"}, "[3]": {"test_system": "M. tuberculosis", "assay": "Minimum bactericidal concentration", "assay_type": "cell-based, Mycobacterium tuberculosis"}, "[4]": {"test_system": "M. tuberculosis H37Rv", "assay": "Griess assay for NO• quantification, H37Rv", "assay_type": "cell-based, Mycobacterium tuberculosis", "details": "20 μM compound, 5 d exposure, lower limit of quantification 0.80 μM NO2−"}, "[5]": {"details": "ref Inoyama et al., 2018; cited from earlier work"}, "[6]": {"assay": "in vivo", "details": "female, mouse; for Vd / clearance / half-life: iv, 5 mg/kg"}, "[7]": {"assay": "Mouse liver microsomal stability", "assay_type": "in vitro ADME", "details": "liver microsomes, pH 7.4"}, "[8]": {"test_system": "100 day-old cultures of M. tuberculosis H37Rv", "assay_type": "cell-based, Mycobacterium tuberculosis"}, "[9]": {"test_system": "M. tuberculosis fgd1∷tn", "assay": "Griess assay for NO• quantification, fgd1∷tn", "assay_type": "cell-based, Mycobacterium tuberculosis", "details": "20 μM compound, lower limit of quantification 0.80 μM NO2−"}, "[10]": {"biological_target": "purified InhA (Mycobacterium tuberculosis, UniProt P9WGR1)", "sequence (P9WGR1 whole entry, looked up)": "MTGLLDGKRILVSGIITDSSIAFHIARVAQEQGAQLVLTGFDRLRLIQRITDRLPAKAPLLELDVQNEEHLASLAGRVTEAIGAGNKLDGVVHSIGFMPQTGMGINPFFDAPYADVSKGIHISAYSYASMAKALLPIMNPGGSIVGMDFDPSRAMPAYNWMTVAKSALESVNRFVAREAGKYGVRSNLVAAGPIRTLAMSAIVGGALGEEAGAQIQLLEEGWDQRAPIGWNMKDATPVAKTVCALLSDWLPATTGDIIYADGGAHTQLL", "assay": "biochemical", "set-up": "species or system M. tuberculosis"}, "[11]": {"details": "for T>MIC: single 25 mg/kg po dose"}, "[12]": {"test_system": "M. tuberculosis H37Rv", "assay": "MIC, microplate-based Alamar Blue assay", "assay_type": "cell-based, Mycobacterium tuberculosis"}, "[13]": {"test_system": "FAS-II pathway in M. tuberculosis H37Rv", "assay_type": "cell-based, Mycobacterium tuberculosis"}, "[14]": {"assay": "Mouse plasma stability", "assay_type": "in vitro ADME", "details": "after 5 h incubation"}, "[15]": {"assay": "Chemical stability, degradation to aminotriazine", "details": "C-N bond cleavage to aminotriazine JSF-3226, light-dependent"}, "[16]": {"assay": "Kinetic aqueous solubility", "assay_type": "physicochemical", "details": "universal aqueous buffer, pH 7.4"}, "[17]": {"test_system": "M. tuberculosis H37Rv", "assay_type": "in vivo", "details": "60 and 200 mg/kg oral daily, after 4 weeks of dosing, Balb/c mice"}, "[18]": {"assay": "Vero cell-based cytotoxicity", "details": "African green monkey, Vero cells"}, "[19]": {"test_system": "E. cloacae", "assay": "MIC versus ESKAPE bacteria: E. cloacae", "assay_type": "cell-based", "details": "Enterobacter cloacae"}, "[20]": {"test_system": "human cytochrome P450 isoforms", "assay_type": "in vitro ADME"}, "[21]": {"assay": "Dose proportionality and tolerability in mice", "details": "single dose 300 mg/kg"}, "[22]": {"assay": "Human liver microsomal stability", "assay_type": "in vitro ADME", "details": "liver microsomes, pH 7.4"}, "[23]": {"test_system": "E. faecium", "assay": "MIC versus ESKAPE bacteria: E. faecium", "assay_type": "cell-based", "details": "Enterococcus faecium"}, "[24]": {"test_system": "P aeruginosa", "assay": "MIC versus ESKAPE bacteria: P aeruginosa", "assay_type": "cell-based"}, "[25]": {"details": "Mycobacterium tuberculosis, H37RV"}}, "note": "Like-named read-outs stand apart in the source and are kept apart here.", "data": [{"smiles": "O=[N+]([O-])c1ccc(/C=N/Nc2nc(Nc3ccccc3)nc(Nc3ccccc3)n2)o1", "note": "[JSF-2019, (E)-6-(2-((5-nitrofuran-2-yl)methylene)hydrazinyl)-N2,N4-diphenyl-1,3,5-triazine-2,4-diamine]", "values": [{"measurement": "MIC shift / loss of susceptibility, fgd1∷tn versus H37Rv", "setting": "[1]", "result": 17, "unit": "fold"}, {"measurement": "MIC (minimum concentration to inhibit 90% of bacterial growth)", "setting": "[2]; ref Ekins et al., 2013", "result": 0.15, "unit": "µM"}, {"measurement": "MBC (lowest concentration to reduce the bacterial population by 2 log10)", "setting": "[3]", "result": "600 – 1200 nM"}, {"measurement": "NO• release quantified as nitrite", "setting": "[4]", "result": "smaller yet quantifiable NO• release compared to pretomanid"}, {"measurement": "aqueous solubility S", "setting": "[5]", "result": "< 0.060", "unit": "µM"}, {"measurement": "Kp at 5 h", "setting": "[6]; 25 mg/kg", "result": 2.6}, {"measurement": "AUC", "setting": "[6]; po, 25 mg/kg", "result": 1150, "unit": "ng·h/mL"}, {"measurement": "AUC(0-t)", "setting": "[6]; po, 25 mg/kg", "result": 1150, "unit": "ng·h/mL"}, {"measurement": "Cmax", "setting": "[6]; po, 25 mg/kg", "result": 317, "unit": "ng/mL"}, {"measurement": "half-life", "setting": "[7]", "result": 63.6, "unit": "min"}, {"measurement": "reduction in colony-forming units (CFUs)", "setting": "[8]", "result": "~4", "unit": "log10"}, {"measurement": "NO• release quantified as nitrite", "setting": "[9]", "result": "not discernible"}, {"measurement": "IC50", "setting": "[10]; InhA IC50, in the presence of 1% CMC Tween-20", "result": "24 ± 3.6", "unit": "µM"}, {"measurement": "IC50", "setting": "[10]; InhA IC50, without added detergent, substrate 2-dodecenoyl-CoA, NADH", "result": "20 ± 2.4", "unit": "µM"}, {"measurement": "T>MIC", "setting": "[11]; mouse", "result": 5.0, "unit": "h"}, {"measurement": "MIC", "setting": "[12]; [25]", "result": 0.078, "unit": "µM"}, {"measurement": "FAMEs and MAMEs profile by TLC", "setting": "[13]; […], INH and pretomanid at 10x MIC, JSF-2019 and JSF-2513 1 – 40x MIC", "result": "accumulation of FAMEs and decrease of MAMEs"}]}, {"smiles": "O=[N+]([O-])c1cn2c(n1)OC[C@@H](OCc1ccc(OC(F)(F)F)cc1)C2", "note": "[Pretomanid, reference compound]", "values": [{"measurement": "reduction in colony-forming units (CFUs)", "setting": "[8]", "result": 6, "unit": "log10"}, {"measurement": "MIC", "setting": "[12]; H37Rv", "result": 0.078, "unit": "µM"}, {"measurement": "MIC", "setting": "[12]; [25]", "result": 0.039, "unit": "µM"}, {"measurement": "FAMEs and MAMEs profile by TLC", "setting": "[13]", "result": "decrease of MAMEs"}]}, {"smiles": "O=[N+]([O-])c1ccc(/C=N/Nc2nc(N3CCC3)nc(N3CCOCC3)n2)o1", "note": "[JSF-2619, (E)-4-(4-(azetidin-1-yl)-6-(2-((5-nitrofuran-2-yl)methylene)hydrazineyl)-1,3,5-triazin-2-yl)morpholine]", "values": [{"measurement": "stability in mouse plasma, compound remaining", "setting": "[14]", "result": "satisfactory stabilities in mouse plasma"}, {"measurement": "Kp at 5 h", "setting": "[6]; 25 mg/kg", "result": 0.23}, {"measurement": "Vd", "setting": "[6]", "result": 1.91, "unit": "L/kg"}, {"measurement": "clearance", "setting": "[6]", "result": 61.7, "unit": "mL/min/kg"}, {"measurement": "half-life", "setting": "[6]", "result": 21.6, "unit": "min"}, {"measurement": "AUC(0-t)", "setting": "[6]; po, 25 mg/kg", "result": 7640, "unit": "ng·h/mL"}, {"measurement": "Cmax", "setting": "[6]; po, 25 mg/kg", "result": 4200, "unit": "ng/mL"}, {"measurement": "bioavailability", "setting": "[6]; po, 25 mg/kg", "result": 49.2, "unit": "%"}, {"measurement": "T>MIC", "setting": "[11]; mouse", "result": "3 to 5", "unit": "h"}]}, {"smiles": "NNC(=O)c1ccncc1", "note": "[INH, reference compound]", "values": [{"measurement": "MIC", "setting": "[12]; [25]", "result": 0.16, "unit": "µM"}, {"measurement": "FAMEs and MAMEs profile by TLC", "setting": "[13]", "result": "reduction of mycolic acids"}]}, {"smiles": "CC1(Nc2nc(N/N=C/c3ccc([N+](=O)[O-])o3)nc(N3CCOCC3)n2)CC1", "note": "[JSF-2625, (E)-N-(1-methylcyclopropyl)-4-morpholino-6-(2-((5-nitrofuran-2-yl)methylene)hydrazineyl)-1,3,5-triazin-2-amine]", "values": [{"measurement": "stability in mouse plasma, aqueous DMSO, or aqueous CH3CN", "setting": "[15]", "result": "found to degrade"}, {"measurement": "Kp at 5 h", "setting": "[6]; 25 mg/kg", "result": 0.3}, {"measurement": "Vd", "setting": "[6]", "result": 1.44, "unit": "L/kg"}, {"measurement": "clearance", "setting": "[6]", "result": 88, "unit": "mL/min/kg"}, {"measurement": "half-life", "setting": "[6]", "result": 11.4, "unit": "min"}, {"measurement": "AUC(0-t)", "setting": "[6]; po, 25 mg/kg", "result": 538, "unit": "ng·h/mL"}, {"measurement": "Cmax", "setting": "[6]; po, 25 mg/kg", "result": 266, "unit": "ng/mL"}, {"measurement": "bioavailability", "setting": "[6]; po, 25 mg/kg", "result": 11.4, "unit": "%"}, {"measurement": "half-life", "setting": "[7]", "result": 56.4, "unit": "min"}, {"measurement": "solubility at 4 h", "setting": "[16]", "result": 8.71, "unit": "µM"}, {"measurement": "T>MIC", "setting": "[11]; mouse", "result": "1 to 3", "unit": "h"}, {"measurement": "MIC", "setting": "[12]; [25]", "result": 0.25, "unit": "µM"}]}, {"smiles": "FC(F)(F)Oc1ccc(CO[C@@H]2COc3nccn3C2)cc1", "note": "[des-nitro pretomanid, reference compound]", "values": [{"measurement": "whole-cell efficacy", "setting": "[2]; ref Singh et al., 2008", "result": "lack quantifiable whole-cell efficacy"}]}, {"smiles": "O=[N+]([O-])c1ccc(/C=N/Nc2nc(N3CCOCC3)nc(N3CCOCC3)n2)o1", "note": "[JSF-2189, (E)-4,4'-(6-(2-((5-nitrofuran-2-yl)methylene)hydrazineyl)-1,3,5-triazine-2,4-diyl)dimorpholine]", "values": [{"measurement": "half-life", "setting": "[7]", "result": 68, "unit": "min"}, {"measurement": "solubility at 4 h", "setting": "[16]", "result": 20.2, "unit": "µM"}, {"measurement": "MIC", "setting": "[12]; [25]", "result": 7.8, "unit": "µM"}]}, {"smiles": "O=[N+]([O-])c1ccc(/C=N/Nc2nc(Nc3ccccc3)nc(N3CCOCC3)n2)o1", "note": "[JSF-2513, (E)-4-morpholino-6-(2-((5-nitrofuran-2-yl)methylene)hydrazineyl)-N-phenyl-1,3,5-triazin-2-amine]", "values": [{"measurement": "M. tuberculosis CFUs in mouse lungs and spleen versus vehicle", "setting": "[17]", "result": "failed to demonstrate a reduction in M. tuberculosis CFUs"}, {"measurement": "NO• release quantified as nitrite", "setting": "[4]", "result": "in a lesser amount than JSF-2019"}, {"measurement": "CC50", "setting": "[18]", "result": 3.9, "unit": "µM"}, {"measurement": "MIC", "setting": "[19]", "result": "> 120", "unit": "µM"}, {"measurement": "stability in mouse plasma, compound remaining", "setting": "[14]", "result": "satisfactory stabilities in mouse plasma"}, {"measurement": "Vd", "setting": "[6]", "result": 1.38, "unit": "L/kg"}, {"measurement": "clearance", "setting": "[6]", "result": 37.2, "unit": "mL/min/kg"}, {"measurement": "half-life", "setting": "[6]", "result": 25.8, "unit": "min"}, {"measurement": "AUC(0-t)", "setting": "[6]; po, 25 mg/kg", "result": 12000, "unit": "ng·h/mL"}, {"measurement": "Cmax", "setting": "[6]; po, 25 mg/kg", "result": 1710, "unit": "ng/mL"}, {"measurement": "bioavailability", "setting": "[6]; po, 25 mg/kg", "result": "≥ 99", "unit": "%"}, {"measurement": "inhibition of human cytochrome P450 isoforms", "setting": "[20]", "result": "did not significantly inhibit"}, {"measurement": "reduction in colony-forming units (CFUs)", "setting": "[8]", "result": "ca. 7 log10"}, {"measurement": "NO• release quantified as nitrite", "setting": "[9]", "result": "abolished"}, {"measurement": "IC50", "setting": "[10]; InhA IC50", "result": "> 150", "unit": "µM"}, {"measurement": "tolerability in mice", "setting": "[21]", "result": "lethargy"}, {"measurement": "solubility at 4 h", "setting": "[16]", "result": 0.853, "unit": "µM"}, {"measurement": "half-life", "setting": "[22]", "result": 61.7, "unit": "min"}, {"measurement": "microsomal CLint", "setting": "[22]", "result": 11.2, "unit": "µL/min/mg"}, {"measurement": "level in the mouse lungs", "setting": "[11]; 5 h post a single 25 mg/kg dose, limit of quantification 25 ng/mL", "result": "near the limit of quantification"}, {"measurement": "Clung/Cplasma at 5 h", "setting": "[11]; mouse", "result": "BLQ"}, {"measurement": "T>MIC", "setting": "[11]; mouse", "result": "8 to 24", "unit": "h"}, {"measurement": "MIC", "setting": "[12]; [25]", "result": 0.63, "unit": "µM"}, {"measurement": "FAMEs and MAMEs profile by TLC", "setting": "[13]", "result": "depletion of MAMEs and accumulation of precursor FAMEs"}, {"measurement": "MIC", "setting": "[23]", "result": 15, "unit": "µM"}, {"measurement": "MIC", "setting": "[24]", "result": "> 120", "unit": "µM"}]}]}
